Experimental data published in patent US20100331348A1, “TROPANE DERIVATIVES USEFUL AS PESTICIDES” (SYNGENTA CROP PROTECTION, INC., priority 2007, published 2010).
Where two headings read alike, the source gives them in different places.

Assays:
[1] = system: Puccinia recondita f.sp. tritici; test: Puccinia recondita f.sp. tritici (wheat brown rust) leaf disk assay; type: in vivo; details: foliar, 216 h, preventive, nine days after inoculation, read-out: control of fungal infection, Puccinia recondita f.sp. tritici
[2] = system: Plasmopara viticola; test: Plasmopara viticola (downy mildew of grapevine) leaf disk assay; type: in vivo; details: foliar, 168 h, preventive, seven days after inoculation, read-out: control of fungal infection, Plasmopara viticola
[3] = system: Phytophthora infestans; test: whole plant or invertebrate; type: in vivo; details: foliar, 96 h, read-out: control of fungal infection, Phytophthora infestans
[4] = system: Erysiphe graminis f.sp. tritici; test: Erysiphe graminis f.sp. tritici (wheat powdery mildew) leaf disk assay; type: in vivo; details: Blumeria graminis, foliar, 96 h, preventive, four days after inoculation, read-out: control of fungal infection, Erysiphe graminis fsp. tritici
[5] = system: Aedes aegypti; test: Aedes aegypti (Yellow fever mosquito) larvae test; type: in vivo; details: 48 h
[6] = system: Plutella xylostella; test: Plutella xylostella (Diamond back moth) artificial diet test; details: 120 h, read-out: control of Plutella xylostella
[7] = system: Pyricularia oryzae; test: whole plant or invertebrate; type: in vivo; details: foliar, 96 h
[8] = read-out: control of fungal infection, Pyricularia oryzae (at least 60% list)
[9] = read-out: control of fungal infection, Pyricularia oryzae (at least 80% list)

Row | Structure (SMILES) | pest or weed control at 200 ppm [1] [%] | pest or weed control at 200 ppm [2] [%] | pest or weed control at 200 ppm [3] [%] | pest or weed control at 200 ppm [4] [%] | pest or weed control at 2 ppm [5] [%] | pest or weed control at 200 ppm [6] [%] | pest or weed control at 200 ppm [7, 8] [%] | pest or weed control at 200 ppm [7, 9] [%]
1 | Fc1cccc(OC2C[C@H]3CC[C@@H](C2)N3c2ncnc3sccc23)c1 (some centres unmarked) [Example 1.15] | ≥ 80 | ≥ 80 | – | – | – | – | – | –
2 | Cc1nc(OC2C[C@H]3CC[C@@H](C2)N3c2ncnc3sccc23)cc(N(C)C)n1 (some centres unmarked) [Example 1.53] | – | ≥ 80 | ≥ 80 | – | – | – | – | –
3 | CSc1nc(C)cc(OC2C[C@H]3CC[C@@H](C2)N3c2ncnc3sccc23)n1 (some centres unmarked) [Example 1.77] | – | ≥ 80 | – | ≥ 80 | – | – | – | –
4 | CCC(=O)c1ccc(OC2C[C@H]3CC[C@@H](C2)N3c2ncnc3sccc23)cc1 (some centres unmarked) [Example 1.256] | ≥ 80 | – | ≥ 80 | – | ≥ 80 | – | – | –
5 | CCCNC(=O)C=C1CC2CCC(C1)N2c1ncnc(CC)c1Cl [Example 3.5] | ≥ 80 | ≥ 80 | – | – | – | – | – | –
6 | O=C(C=C1CC2CCC(C1)N2c1ncnc2sccc12)Nc1ccc(Cl)cc1 [Example 3.17] | – | ≥ 80 | – | – | – | – | – | –
7 | Cc1cc(OCC=C2CC3CCC(C2)N3c2ncnc3sccc23)nc(C)n1 [Example 3.18] | ≥ 80 | ≥ 80 | – | – | ≥ 80 | – | – | –
8 | CC(NC(=O)C=C1CC2CCC(C1)N2c1ncnc2sccc12)c1ccccc1 (centres unmarked) [Example 3.22] | ≥ 80 | ≥ 80 | – | – | – | – | – | –
9 | Fc1cccc(OCC=C2CC3CCC(C2)N3c2ncnc3sccc23)c1 [Example 3.38] | ≥ 80 | ≥ 80 | – | – | ≥ 80 | ≥ 80 | ≥ 60 | ≥ 80
10 | CCc1ncnc(N2C3CCC2CC(=NOCc2ccccc2C)C3)c1Cl [Example 5.10] | ≥ 80 | – | ≥ 80 | ≥ 80 | – | ≥ 80 | – | –
11 | CCc1ncnc(N2C3CCC2CC(=NOCc2nc(C)cc(Cl)n2)C3)c1Cl [Example 5.13] | – | ≥ 80 | – | ≥ 80 | – | – | – | –
12 | CCc1ncnc(N2C3CCC2CC(=NOCc2ccccc2OC)C3)c1Cl [Example 5.23] | ≥ 80 | ≥ 80 | – | ≥ 80 | – | – | – | –
13 | CCc1ncnc(N2C3CCC2CC(=NOCc2cccc(F)c2)C3)c1Cl [Example 5.48] | ≥ 80 | – | ≥ 80 | ≥ 80 | ≥ 80 | – | – | –
14 | CCc1ncnc(N2C3CCC2CC(=NOCc2ccc(F)c(F)c2F)C3)c1Cl [Example 5.81] | ≥ 80 | – | ≥ 80 | ≥ 80 | ≥ 80 | – | ≥ 60 | –
15 | CCc1ncnc(N2C3CCC2CC(=NOc2nc(Cl)ccc2C(F)(F)F)C3)c1Cl [Example 5.117] | – | ≥ 80 | – | – | – | – | – | –
16 | c1nc(N2C3CCC2CC(=NOCCC2CCCCC2)C3)c2ccsc2n1 [Example 5.136] | – | ≥ 80 | – | – | – | – | – | –
17 | Clc1ccc(CON=C2CC3CCC(C2)N3c2ncnc3sccc23)cc1 [Example 5.142] | ≥ 80 | ≥ 80 | – | ≥ 80 | ≥ 80 | ≥ 80 | ≥ 60 | –
18 | Clc1cccc(CON=C2CC3CCC(C2)N3c2ncnc3sccc23)c1 [Example 5.150] | ≥ 80 | – | ≥ 80 | ≥ 80 | ≥ 80 | – | ≥ 60 | –
19 | Clc1cc(ON=C2CC3CCC(C2)N3c2ncnc3sccc23)nc(Cl)n1 [Example 5.154] | – | ≥ 80 | – | – | – | – | – | –
20 | Cc1ccccc1CON=C1CC2CCC(C1)N2c1ncnc2sccc12 [Example 5.155] | ≥ 80 | ≥ 80 | – | ≥ 80 | ≥ 80 | ≥ 80 | ≥ 60 | –
21 | Cc1cccc(CON=C2CC3CCC(C2)N3c2ncnc3sccc23)c1 [Example 5.157] | ≥ 80 | ≥ 80 | ≥ 80 | ≥ 80 | – | – | ≥ 60 | –

Row | Structure (SMILES) | pest or weed control at 200 ppm [1] [%] | pest or weed control at 200 ppm [2] [%] | pest or weed control at 200 ppm [3] [%] | pest or weed control at 200 ppm [4] [%] | pest or weed control at 2 ppm [5] [%] | pest or weed control at 200 ppm [6] [%] | pest or weed control at 200 ppm [7, 8] [%] | pest or weed control at 200 ppm [7, 9] [%]
22 | Clc1ccc(CON=C2CC3CCC(C2)N3c2ncnc3sccc23)cc1Cl [Example 5.169] | ≥ 80 | ≥ 80 | – | ≥ 80 | – | ≥ 80 | ≥ 60 | ≥ 80
23 | Brc1cccc(CON=C2CC3CCC(C2)N3c2ncnc3sccc23)c1 [Example 5.181] | ≥ 80 | – | ≥ 80 | ≥ 80 | ≥ 80 | – | ≥ 60 | –
24 | Fc1ccc(CON=C2CC3CCC(C2)N3c2ncnc3sccc23)cc1F [Example 5.185] | ≥ 80 | – | ≥ 80 | ≥ 80 | ≥ 80 | ≥ 80 | ≥ 60 | ≥ 80
25 | N#Cc1ccccc1CON=C1CC2CCC(C1)N2c1ncnc2sccc12 [Example 5.191] | ≥ 80 | ≥ 80 | – | ≥ 80 | ≥ 80 | – | – | –
26 | c1ccc2nc(CON=C3CC4CCC(C3)N4c3ncnc4sccc34)ccc2c1 [Example 5.193] | ≥ 80 | ≥ 80 | – | ≥ 80 | ≥ 80 | – | – | –
27 | N#Cc1cccc(CON=C2CC3CCC(C2)N3c2ncnc3sccc23)c1 [Example 5.199] | ≥ 80 | – | ≥ 80 | ≥ 80 | – | – | – | ≥ 80
28 | Fc1cc(F)c(F)c(CON=C2CC3CCC(C2)N3c2ncnc3sccc23)c1 [Example 5.227] | ≥ 80 | – | ≥ 80 | ≥ 80 | ≥ 80 | – | ≥ 60 | –
29 | Fc1cc(CON=C2CC3CCC(C2)N3c2ncnc3sccc23)cc(C(F)(F)F)c1 [Example 5.231] | – | ≥ 80 | – | ≥ 80 | – | – | ≥ 60 | –
30 | Fc1cc(CON=C2CC3CCC(C2)N3c2ncnc3sccc23)cc(C(F)(F)F)c1F [Example 5.235] | ≥ 80 | – | ≥ 80 | ≥ 80 | – | – | ≥ 60 | –
31 | Fc1ccc(C(F)(F)F)cc1CON=C1CC2CCC(C1)N2c1ncnc2sccc12 [Example 5.238] | ≥ 80 | ≥ 80 | – | ≥ 80 | ≥ 80 | ≥ 80 | ≥ 60 | –
32 | COc1cc(ON=C2CC3CCC(C2)N3c2ncnc3sccc23)nc(SC)n1 [Example 5.246] | ≥ 80 | ≥ 80 | – | – | – | – | – | –
33 | Clc1cc2c(cc1CON=C1CC3CCC(C1)N3c1ncnc3sccc13)OCO2 [Example 5.250] | ≥ 80 | ≥ 80 | – | ≥ 80 | ≥ 80 | – | – | –
34 | Cc1nn(C)c2nccc(N3C4CCC3CC(=NOCc3ccccc3)C4)c12 [Example 5.253] | – | ≥ 80 | – | – | – | – | – | –
35 | CCOC(=O)c1ccc(CON=C2CC3CCC(C2)N3c2ncnc3sccc23)o1 [Example 5.259] | ≥ 80 | ≥ 80 | – | ≥ 80 | – | – | – | –
36 | CC1(C)COC2(CC3CCC(C2)N3c2ncnc3sccc23)O1 (centres unmarked) [Example 6.2] | ≥ 80 | ≥ 80 | ≥ 80 | ≥ 80 | – | – | – | –
37 | c1ccc(C2COC3(CC4CCC(C3)N4c3ncnc4sccc34)O2)cc1 (centres unmarked) [Example 6.7] | ≥ 80 | ≥ 80 | – | ≥ 80 | ≥ 80 | – | ≥ 60 | ≥ 80
38 | ClCC1COC2(CC3CCC(C2)N3c2ncnc3sccc23)O1 (centres unmarked) [Example 6.8] | ≥ 80 | ≥ 80 | – | ≥ 80 | ≥ 80 | – | – | –
39 | CCC1COC2(CC3CCC(C2)N3c2ncnc3sccc23)O1 (centres unmarked) [Example 6.9] | ≥ 80 | ≥ 80 | – | ≥ 80 | ≥ 80 | – | – | –
40 | O=C(CC1CC2CCC(C1)N2c1ncnc2sccc12)Nc1ccc(Cl)cc1 (centres unmarked) [Example 7.12] | ≥ 80 | ≥ 80 | – | – | – | – | – | –
41 | FC(F)(F)c1csc(CC2CC3CCC(C2)N3c2ncnc3sccc23)n1 (centres unmarked) [Example 7.18] | ≥ 80 | ≥ 80 | – | – | ≥ 80 | – | ≥ 60 | ≥ 80
42 | Clc1ccc(-c2csc(CC3CC4CCC(C3)N4c3ncnc4sccc34)n2)cc1 (centres unmarked) [Example 7.19] | – | ≥ 80 | – | – | ≥ 80 | ≥ 80 | – | –
